Assay results reported in article PMC8284454, “In Vitro Profiling of Antitubercular Compounds by Rapid, Efficient, and Nondestructive Assays Using Autoluminescent Mycobacterium tuberculosis” (Antimicrobial Agents and Chemotherapy, 2021).
Values after ≈ are worked out from the molar mass of the structure shown. Read-outs that look alike come from different tables or passages of the source. Marks after values point to notes of the source that are not given here.

Assays:
[1] = system: M. tuberculosis H37Rv_LuxABCDE; experiment: microbe, parasite or virus in culture; assay type: cell-based, Mycobacterium tuberculosis; details: Mycobacterium tuberculosis, day 7, SD from three independent experiments, read-out: MBC (±SD) via CFU
[2] = system: J774-internalized M. tuberculosis (H37Rv); experiment: intracellular activity by luminescence (EC90); assay type: cell-based, Mycobacterium tuberculosis; details: for EC90: RLU; for onset of growth inhibition of internalized M. tuberculosis: early = EC90 obtainable by day 3, late = EC90 obtainable by day 5 or later
[3] = system: M. tuberculosis H37Rv_LuxABCDE; experiment: postantibiotic effect by luminescence (RLU); assay type: cell-based, Mycobacterium tuberculosis; details: 1.5 log10 RLU increase, 1:10,000-fold dilution; for PAE 10× MIC RLU: 3 h exposure at 10× MIC; for PAE 100× MIC RLU: 3 h exposure at 100× MIC
[4] = system: M. tuberculosis H37Rv_LuxABCDE; experiment: microplate alamarBlue assay (MABA) MIC; details: 90% reduction of fluorescence, 7 days, 7H12 medium; SD from three independent experiments
[5] = system: M. tuberculosis H37Rv_LuxABCDE; experiment: MIC used to set PAE concentrations (Table 4); assay type: cell-based; details: Mycobacterium tuberculosis
Description: TABLE 4 Comparison of post antibiotic effect values (h) obtained via CFU and RLU measurement for two established TB drugs (rifampin and isoniazid) and two emerging TB lead candidates (ecumicin and rufomycin)^a | column: MIC (μM)

[6] = system: M. tuberculosis H37Rv_LuxABCDE; experiment: luminescence-based MIC assay (LMICA); details: 90% reduction of luminescence, 7 days, 7H12 medium; SD from three independent experiments
[7] = system: infected J774
[8] = system: M. tuberculosis H37Rv_LuxABCDE; experiment: luminescence-based MBC assay (LMBCA) / time-kill; assay type: cell-based, Mycobacterium tuberculosis; details: for MBC: Mycobacterium tuberculosis, 99% reduction in RLU vs T0; for change of MBC values over time: over 21 days, luminescence time-kill; for time and/or concentration dependence of bactericidal activity: time-kill curves up to day 21
[9] = system: macrophage-internalized M. tuberculosis; details: EC90, high-content imaging on day 5; read-out: Literature reported EC90; cited from earlier work
[10] = system: M. tuberculosis H37Rv_LuxABCDE; assay type: cell-based, Mycobacterium tuberculosis; details: 1:10,000-fold dilution; for PAE 10× MIC CFU/ml: 3 h exposure at 10× MIC; for PAE 100× MIC CFU/ml: 3 h exposure at 100× MIC
[11] = Mycobacterium tuberculosis, H37RV, 72 h, EC90, day 3, J774 macrophages, read-out: Intracellular activity, EC90 (±SD) Day 3
[12] = Mycobacterium tuberculosis, H37RV, 120 h, EC90, day 5, J774 macrophages, read-out: Intracellular activity, EC90 (±SD) Day 5
[13] = Mycobacterium tuberculosis, H37RV, 168 h, EC90, day 7, J774 macrophages, read-out: Intracellular activity, EC90 (±SD) Day 7
[14] = 168 h, day 7, SD from three independent experiments, read-out: MBC (±SD) via luminescence
[15] = 336 h, day 14, read-out: MBC (±SD) by luminescence on day 14
[16] = 504 h, day 21, read-out: MBC (±SD) by luminescence on day 21

Row | SMILES | MBC [1] [µM] | EC90 [2, 11] [nM] | EC90 [2, 12] [nM] | EC90 [2, 13] [nM] | onset of growth inhibition of internalized M. tuberculosis [2] | PAE 10× MIC RLU [3] [h] | PAE 100× MIC RLU [3] [h] | MIC (±SD) MABA [4] | MIC [5] [µM] | MIC (±SD) LMICA [6] | MBC [8, 14] [µM] | MBC [8, 15] [µM] | MBC [8, 16] [µM] | change of MBC values over time [8] | time and/or concentration dependence of bactericidal activity [8] | EC90 [9] [nM] | PAE 10× MIC CFU/ml [10] [h] | PAE 100× MIC CFU/ml [10] [h] | other results
1 | NNC(=O)c1ccncc1 [Isoniazid] | 0.46 (≈ 0.0631 µg/mL) | > 8000 | 1050 | 520 | late growth inhibition | 0 | 0 | 0.30 (0.05) μM | 0.3 (≈ 0.0411 µg/mL) | 0.24 (0.08) μM | 0.57 (≈ 0.0782 µg/mL) | 2.56 (≈ 0.351 µg/mL) | 3.23 (≈ 0.443 µg/mL) | increase | mainly time dependent | 1200 | 0 | 0 | inhibition at 8 µM ([2]; Mycobacterium tuberculosis, H37RV, 72 h, day 3, 8 μM, read-out: percent inhibition at the highest tested concentration, intracellular activity Day 3): 77%; PAE 1× MIC RLU ([3]; 3 h exposure at 1× MIC): 0 h; PAE 100× MIC RLU ([3]; listed as isoniazid): no observable PAE; Toxicity against infected J774, percent inhibition at the highest tested concentration ([7]; day 7, 8 μM): 8 (0)* percent; PAE 1× MIC CFU/ml ([10]; 3 h exposure at 1× MIC): 0 h; PAE 100× MIC CFU/ml ([10]; listed as isoniazid): no observable PAE
2 | CO[C@H]1/C=C/O[C@@]2(C)Oc3c(C)c(O)c4c(O)c(c(/C=N/N5CCN(C)CC5)c(O)c4c3C2=O)NC(=O)/C(C)=C\C=C\[C@H](C)[C@H](O)[C@@H](C)[C@@H](O)[C@@H](C)[C@H](OC(C)=O)[C@@H]1C [Rifampin] | 0.4 (≈ 0.329 µg/mL) | > 2000 | 1550 | 640 | late growth inhibition | 26 | 92 | 0.060 (0.01) μM | 0.04 (≈ 0.0329 µg/mL) | 0.041 (0.005) μM | 0.6 (≈ 0.494 µg/mL) | 0.48 (≈ 0.395 µg/mL) | 0.4 (≈ 0.329 µg/mL) | decreased | both time and concentration dependent | 2900 | 30 | 58 | inhibition at 2 µM ([2]; Mycobacterium tuberculosis, H37RV, 72 h, day 3, 2 μM, read-out: percent inhibition at the highest tested concentration, intracellular activity Day 3): 60%; Toxicity against infected J774, percent inhibition at the highest tested concentration ([7]; day 7, 2 μM): 2 (0)* percent
